From US20250186405A1, “Compound For Use In Treating Narcolepsy” (Alkermes, Inc., priority 2023, published 2025)

Test system: subjects with idiopathic hypersomnia (IH)
Assay: Part 6 POC IH: treatment-emergent adverse events, single doses, crossover
[1] = Total (any Compound A dose), N = 8

Experimental: Part 6 consisted of a 4-way, 4-period crossover study design in approximately 8 subjects (2 subjects per sequence; minimum of 4 subjects with 1 subject per sequence). […] Treatments were administered under fasted state.
Subjects were randomized to 1 of 4 sequences. […] No food was given for at least 3 hours after dose administration (i.e., fast can be broken after the 3-hour PK time point is collected). Water was allowed ad libitum except for 1 hour before and 1 hour after study drug administration. Safety assessments including AEs, safety ECGs, vital signs, and clinical laboratory tests were conducted, and plasma PK samples were collected.
Adverse events (AEs) and serious adverse events (SAEs) were monitored continuously until the completion of the study.
Eight subjects with IH were dosed in Part 6 (POC in IH) in a randomized 4-sequence 4-period cross-over design.

CS(=O)(=O)N[C@H]1CCCN2C(=O)COc3ccccc3C3CCC(CC3)OCC12 (stereo partly drawn) [Compound A, N-[(4S,4aR,7α,10α)-1,2,3,4,4a,5,7,8,9,10,16,17-dodecahydro-17-oxo-7,10-ethanopyrido[1,2-d][1,7,4]benzodioxaazacyclotridecin-4-yl]methanesulfonamide]
Any SAEs (25 mg single dose, N = 8): 0 n (%)
Any TEAE (25 mg single dose, N = 8): 7 (87.5) n (%)
Death (25 mg single dose, N = 8): 0 n (%)
Drug Related TEAE by Preferred Term: Cold sweat (25 mg single dose, N = 8): 1 (12.5) n (%)
Drug Related TEAE by Preferred Term: Dizziness (25 mg single dose, N = 8): 2 (25.0) n (%)
Drug Related TEAE by Preferred Term: Dysuria (25 mg single dose, N = 8): 1 (12.5) n (%)
Drug Related TEAE by Preferred Term: Feeling jittery (25 mg single dose, N = 8): 1 (12.5) n (%)
Drug Related TEAE by Preferred Term: Insomnia (25 mg single dose, N = 8): 2 (25.0) n (%)
Drug Related TEAE by Preferred Term: Micturition urgency (25 mg single dose, N = 8): 1 (12.5) n (%)
Drug Related TEAE by Preferred Term: Middle insomnia (25 mg single dose, N = 8): 1 (12.5) n (%)
Drug Related TEAE by Preferred Term: Palpitations (25 mg single dose, N = 8): 1 (12.5) n (%)
Drug Related TEAE by Preferred Term: Pollakiuria (25 mg single dose, N = 8): 4 (50.0) n (%)
Drug Related TEAE by Preferred Term: Supraventricular extrasystoles (25 mg single dose, N = 8): 1 (12.5) n (%)
Drug Related TEAE by Preferred Term: Tachycardia (25 mg single dose, N = 8): 1 (12.5) n (%)
Drug Related TEAE by Preferred Term: Visual impairment (25 mg single dose, N = 8): 1 (12.5) n (%)
Subjects with at least one TEAE (25 mg single dose, N = 8): 7 (87.5) n (%)
Subjects with at least one treatment-related TEAE (25 mg single dose, N = 8): 7 (87.5) n (%)
TEAE by Highest Relationship: Not Related (25 mg single dose, N = 8): 0 n (%)
TEAE by Highest Relationship: Related (25 mg single dose, N = 8): 7 (87.5) n (%)
TEAE by Highest Severity: Mild (25 mg single dose, N = 8): 6 (75.0) n (%)
TEAE by Highest Severity: Moderate (25 mg single dose, N = 8): 1 (12.5) n (%)
TEAE by Highest Severity: Severe (25 mg single dose, N = 8): 0 n (%)
TEAE by Preferred Term: Blood creatine phosphokinase increased (25 mg single dose, N = 8): 0 n (%)
TEAE by Preferred Term: Blood creatinine increased (25 mg single dose, N = 8): 0 n (%)
TEAE by Preferred Term: Cold sweat (25 mg single dose, N = 8): 1 (12.5) n (%)
TEAE by Preferred Term: Dermatitis contact (25 mg single dose, N = 8): 0 n (%)
TEAE by Preferred Term: Dizziness (25 mg single dose, N = 8): 2 (25.0) n (%)
TEAE by Preferred Term: Dysuria (25 mg single dose, N = 8): 1 (12.5) n (%)
TEAE by Preferred Term: Epistaxis (25 mg single dose, N = 8): 1 (12.5) n (%)
TEAE by Preferred Term: Feeling jittery (25 mg single dose, N = 8): 1 (12.5) n (%)
TEAE by Preferred Term: Headache (25 mg single dose, N = 8): 1 (12.5) n (%)
TEAE by Preferred Term: Insomnia (25 mg single dose, N = 8): 2 (25.0) n (%)
TEAE by Preferred Term: Micturition urgency (25 mg single dose, N = 8): 1 (12.5) n (%)
TEAE by Preferred Term: Middle insomnia (25 mg single dose, N = 8): 1 (12.5) n (%)
TEAE by Preferred Term: Nausea (25 mg single dose, N = 8): 0 n (%)
TEAE by Preferred Term: Neck pain (25 mg single dose, N = 8): 0 n (%)
TEAE by Preferred Term: Palpitations (25 mg single dose, N = 8): 1 (12.5) n (%)
TEAE by Preferred Term: Phlebitis (25 mg single dose, N = 8): 0 n (%)
TEAE by Preferred Term: Pollakiuria (25 mg single dose, N = 8): 4 (50.0) n (%)
TEAE by Preferred Term: Presyncope (25 mg single dose, N = 8): 0 n (%)
TEAE by Preferred Term: Skin irritation (25 mg single dose, N = 8): 0 n (%)
TEAE by Preferred Term: Steatorrhoea (25 mg single dose, N = 8): 0 n (%)
TEAE by Preferred Term: Supraventricular extrasystoles (25 mg single dose, N = 8): 1 (12.5) n (%)
TEAE by Preferred Term: Tachycardia (25 mg single dose, N = 8): 1 (12.5) n (%)
TEAE by Preferred Term: Urinary tract infection (25 mg single dose, N = 8): 0 n (%)
TEAE by Preferred Term: Vessel puncture site bruise (25 mg single dose, N = 8): 0 n (%)
TEAE by Preferred Term: Vessel puncture site pain (25 mg single dose, N = 8): 1 (12.5) n (%)
TEAE by Preferred Term: Visual impairment (25 mg single dose, N = 8): 1 (12.5) n (%)
TEAE by Preferred Term: Vomiting (25 mg single dose, N = 8): 0 n (%)
Tolerability (IH, 5, 12 and 25 mg): well tolerated
Subjects with at least one TEAE (IH, N = 8, all periods): 100%
AE Leading to Study Drug Discontinuation [1]: 0 n (%)
Any SAEs [1]: 0 n (%)
Any TEAE [1]: 8 n (%)
Death [1]: 0 n (%)
Drug Related TEAE by Preferred Term: Cold sweat [1]: 1 (12.5) n (%)
Drug Related TEAE by Preferred Term: Dizziness [1]: 2 (25.0) n (%)
Drug Related TEAE by Preferred Term: Dysuria [1]: 1 (12.5) n (%)
Drug Related TEAE by Preferred Term: Feeling jittery [1]: 1 (12.5) n (%)
Drug Related TEAE by Preferred Term: Insomnia [1]: 2 (25.0) n (%)
Drug Related TEAE by Preferred Term: Micturition urgency [1]: 1 (12.5) n (%)
Drug Related TEAE by Preferred Term: Middle insomnia [1]: 2 (25.0) n (%)
Drug Related TEAE by Preferred Term: Palpitations [1]: 1 (12.5) n (%)
Drug Related TEAE by Preferred Term: Pollakiuria [1]: 5 (62.5) n (%)
Drug Related TEAE by Preferred Term: Supraventricular extrasystoles [1]: 1 (12.5) n (%)
Drug Related TEAE by Preferred Term: Tachycardia [1]: 1 (12.5) n (%)
Drug Related TEAE by Preferred Term: Visual impairment [1]: 1 (12.5) n (%)
Subjects with at least one TEAE [1]: 8 n (%)
Subjects with at least one treatment-related TEAE [1]: 8 (100) n (%)
TEAE by Highest Relationship: Not Related [1]: 0 n (%)
TEAE by Highest Relationship: Related [1]: 8 n (%)
TEAE by Highest Severity: Mild [1]: 7 n (%)
TEAE by Highest Severity: Moderate [1]: 1 n (%)
TEAE by Highest Severity: Severe [1]: 0 n (%)
TEAE by Preferred Term: Blood creatine phosphokinase increased [1]: 1 n (%)
TEAE by Preferred Term: Blood creatinine increased [1]: 1 n (%)
TEAE by Preferred Term: Cold sweat [1]: 1 n (%)
TEAE by Preferred Term: Dermatitis contact [1]: 0 n (%)
TEAE by Preferred Term: Dizziness [1]: 4 n (%)
TEAE by Preferred Term: Dysuria [1]: 1 n (%)
TEAE by Preferred Term: Epistaxis [1]: 1 n (%)
TEAE by Preferred Term: Feeling jittery [1]: 1 n (%)
TEAE by Preferred Term: Headache [1]: 3 n (%)
TEAE by Preferred Term: Insomnia [1]: 2 n (%)
TEAE by Preferred Term: Micturition urgency [1]: 1 n (%)
TEAE by Preferred Term: Middle insomnia [1]: 2 n (%)
TEAE by Preferred Term: Nausea [1]: 1 n (%)
TEAE by Preferred Term: Neck pain [1]: 1 n (%)
TEAE by Preferred Term: Palpitations [1]: 1 n (%)
TEAE by Preferred Term: Phlebitis [1]: 1 n (%)
TEAE by Preferred Term: Pollakiuria [1]: 5 n (%)
TEAE by Preferred Term: Presyncope [1]: 1 n (%)
TEAE by Preferred Term: Skin irritation [1]: 1 n (%)
TEAE by Preferred Term: Steatorrhoea [1]: 1 n (%)
TEAE by Preferred Term: Supraventricular extrasystoles [1]: 1 n (%)
TEAE by Preferred Term: Tachycardia [1]: 1 n (%)
TEAE by Preferred Term: Urinary tract infection [1]: 1 n (%)
TEAE by Preferred Term: Vessel puncture site bruise [1]: 2 n (%)
TEAE by Preferred Term: Vessel puncture site pain [1]: 1 n (%)
TEAE by Preferred Term: Visual impairment [1]: 1 n (%)
TEAE by Preferred Term: Vomiting [1]: 0 n (%)
